For 12 molecules, EC50 and GI50 results are on record in ChEMBL document CHEMBL1137417, “Design, synthesis, and biological evaluation of hydroquinone derivatives of 17-amino-17-demethoxygeldanamycin as potent, water-soluble inhibitors of Hsp90” (J Med Chem, 2006).

The target of assay [1] is T1, Heat shock protein HSP90 (Homo sapiens, UniProt P07900+P08238). Nature of the assay: Degradation of Her2 in SKOV3 cells. In kind it is functional, cell-based. The following applies: sk-ov-3.
The target of assay [2] is T1, Heat shock protein HSP90. Nature of the assay: Upregulation of Hsp70 in SKBR3 cells. The conditions noted are these: sk-br-3. Type of assay: functional, cell-based.
Assay [3] deals with SK-BR-3. Nature of the assay: Inhibition of human SKBR3 cell growth. In kind it is functional.
In assay [4] the target is T1, Heat shock protein HSP90. Nature of the assay: Inhibition of BODIPY-AG binding to human HSP90. In kind it is protein assay.
In assay [5] the target is Endoplasmin (Canis lupus familiaris, UniProt P41148). Nature of the assay: Inhibition of BODIPY-AG binding to dog Grp94.
Assay [6] deals with T1, Heat shock protein HSP90. Nature of the assay: Upregulation of Hsp70 in SKOV3 cells. Type of assay: functional, cell-based. The following applies: sk-ov-3.
Assay [7] deals with SK-OV-3. Nature of the assay: Inhibition of human SKOV3 cell growth. In kind it is functional.
Assay [8] has as its target T1, Heat shock protein HSP90. Nature of the assay: Degradation of Her2 in SKBR3 cells. Type of assay: functional, cell-based. The following applies: sk-br-3.

Structures are written as SMILES.

What is called EC50 is the midpoint of the concentration-response curve. High values mean weaker potency, low ones greater potency. A word on the GI50: it is the concentration that inhibits growth by half. High values mean lower sensitivity of the cells, low ones greater sensitivity of the cells.

Chain of Endoplasmin (P41148 whole entry): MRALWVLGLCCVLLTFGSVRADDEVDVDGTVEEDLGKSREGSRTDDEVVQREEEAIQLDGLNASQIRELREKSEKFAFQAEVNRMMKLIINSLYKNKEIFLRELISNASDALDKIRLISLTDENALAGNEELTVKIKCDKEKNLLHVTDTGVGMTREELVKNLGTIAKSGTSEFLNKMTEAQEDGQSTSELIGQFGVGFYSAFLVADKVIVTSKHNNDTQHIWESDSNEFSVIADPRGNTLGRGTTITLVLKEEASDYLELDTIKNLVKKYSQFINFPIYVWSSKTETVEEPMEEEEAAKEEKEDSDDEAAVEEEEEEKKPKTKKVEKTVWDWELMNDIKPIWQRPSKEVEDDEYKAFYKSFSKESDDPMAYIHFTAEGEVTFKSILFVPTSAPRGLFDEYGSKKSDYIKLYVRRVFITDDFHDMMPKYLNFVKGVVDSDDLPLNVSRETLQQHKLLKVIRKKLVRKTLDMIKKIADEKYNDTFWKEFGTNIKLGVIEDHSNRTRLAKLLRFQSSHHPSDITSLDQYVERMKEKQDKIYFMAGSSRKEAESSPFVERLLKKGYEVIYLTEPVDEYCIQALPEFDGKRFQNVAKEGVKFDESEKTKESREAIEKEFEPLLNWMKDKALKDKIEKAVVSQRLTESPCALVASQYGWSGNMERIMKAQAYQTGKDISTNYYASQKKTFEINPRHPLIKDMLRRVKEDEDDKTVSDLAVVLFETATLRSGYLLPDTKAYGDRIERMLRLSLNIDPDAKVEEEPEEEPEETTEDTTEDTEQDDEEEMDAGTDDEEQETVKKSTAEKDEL

On to `CO[C@H]1/C=C\C=C(/C)C(=O)Nc2cc(O)c(N)c(c2O)C[C@@H](C)C[C@H](OC)[C@H](O)[C@@H](C)/C=C(\C)[C@@H]1OC(N)=O.Cl`, for which the concentration giving a half-maximal response (EC50) in assay [1] is 0.031 µM; in assay [2] it was 0.058 µM; in assay [4], 0.034 µM; in assay [5], 0.048 µM; in assay [6], 0.01 µM. Besides, the GI50 was 0.05 µM in assay [3] and 0.017 µM in assay [7].
For `CO[C@H]1/C=C\C=C(/C)C(=O)Nc2cc(O)c(NC[C@H](O)CO)c(c2O)C[C@@H](C)C[C@H](OC)[C@H](O)[C@@H](C)/C=C(\C)[C@@H]1OC(N)=O.Cl`, the EC50 in assay [1] was 0.756 µM; in assay [2], 0.102 µM; in assay [4], 0.091 µM; in assay [5], 0.131 µM; in assay [8] it was 0.321 µM; in assay [6] it was greater than 10 µM. Also, the 50% growth inhibitory concentration (GI50) in assay [3] worked out at 0.832 µM; in assay [7], 1.11 µM.
For the molecule `CO[C@H]1/C=C\C=C(/C)C(=O)NC2=CC(=O)C(NC[C@H](O)CO)=C(C[C@@H](C)C[C@H](OC)[C@H](O)[C@@H](C)/C=C(\C)[C@@H]1OC(N)=O)C2=O`, the EC50 in assay [1] was found to be 4.585 µM; in assay [2], 0.14 µM; in assay [4] it was 0.066 µM; in assay [5], 0.072 µM; in assay [8], 0.141 µM; in assay [6], 0.853 µM. Besides, the concentration for 50% growth inhibition (GI50) in assay [3] came out at 0.724 µM; in assay [7], 2.02 µM.
Turning to `CO[C@H]1/C=C\C=C(/C)C(=O)NC2=CC(=O)C(N)=C(C[C@@H](C)C[C@H](OC)[C@H](O)[C@@H](C)/C=C(\C)[C@@H]1OC(N)=O)C2=O`, the concentration for a half-maximal effect (EC50) in assay [1] stood at 0.053 µM; in assay [2], 0.017 µM; in assay [4], 0.034 µM; in assay [5], 0.048 µM; in assay [8], 0.008 µM; in assay [6] it was 0.006 µM. Moreover, the concentration for 50% growth inhibition (GI50) in assay [3] was 0.025 µM; in assay [7], 0.014 µM.
`C=CCNc1c(O)cc2nc3oc2c1C[C@@H](C)C[C@H](OC)[C@H](O)[C@@H](C)/C=C(\C)[C@H](OC(N)=O)[C@@H](OC)/C=C\C=C\3C.Cl`: the EC50 in assay [1] was 0.435 µM; in assay [4] it was greater than 10 µM; in assay [5], greater than 10 µM; in assay [8], 0.585 µM; in assay [6], 3.229 µM. In addition, the concentration for 50% growth inhibition (GI50) in assay [3] worked out at 1.78 µM; in assay [7], 0.371 µM.
As for `C=CCn1c(=O)oc2cc3c(O)c(c21)C[C@@H](C)C[C@H](OC)[C@H](O)[C@@H](C)/C=C(\C)[C@H](OC(N)=O)[C@@H](OC)/C=C\C=C(/C)C(=O)N3`, the half-maximal effective concentration (EC50) in assay [1] is 0.742 µM; in assay [2], 0.384 µM; in assay [4] it was 0.603 µM; in assay [8], 1.046 µM; in assay [6], 2.283 µM. The GI50 worked out at 0.583 µM in assay [3] and 1.24 µM in assay [7].
Consider `C=CCN1C(=O)COc2cc3c(O)c(c21)C[C@@H](C)C[C@H](OC)[C@H](O)[C@@H](C)/C=C(\C)[C@H](OC(N)=O)[C@@H](OC)/C=C\C=C(/C)C(=O)N3`, for which the concentration giving a half-maximal response (EC50) in assay [1] amounted to 0.415 µM; in assay [2], 0.311 µM; in assay [4], 0.541 µM; in assay [8], 0.19 µM; in assay [6] it was 1.005 µM. In addition, the GI50 came out at 0.739 µM in assay [3] and 0.726 µM in assay [7].
In the case of `Nc1ncnc2c1ncn2[C@@H]1O[C@H](COP(=O)(O)OP(=O)(O)O)[C@@H](O)[C@H]1O` [ADENOSINE DIPHOSPHATE], the EC50 in assay [4] was determined as 87 µM; in assay [5], 21 µM.
Taken in the same sequence, the figures for `Nc1ncnc2c1ncn2[C@@H]1O[C@H](COP(=O)(O)OP(=O)(O)OP(=O)(O)O)[C@@H](O)[C@H]1O` [ADENOSINE TRIPHOSPHATE] were 1500 µM and 19 µM.
Take `CO[C@H]1/C=C\C=C(/C)C(=O)NC2=CC(=O)C(NCCN(C)C)=C(C[C@@H](C)C[C@H](OC)[C@H](O)[C@@H](C)/C=C(\C)[C@@H]1OC(N)=O)C2=O` [ALVESPIMYCIN]: the GI50 in assay [3] came out at 0.029 µM; in assay [7] it was 0.032 µM. In addition, in assay [5], the EC50 was 0.065 µM.
For the molecule `C=CCNc1c(O)cc2c(O)c1C[C@@H](C)C[C@H](OC)[C@H](O)[C@@H](C)/C=C(\C)[C@H](OC(N)=O)[C@@H](OC)/C=C\C=C(/C)C(=O)N2.Cl` [RETASPIMYCIN HYDROCHLORIDE], the concentration for a half-maximal effect (EC50) in assay [1] worked out at 0.027 µM; in assay [4], 0.063 µM; in assay [5], 0.119 µM; in assay [8] it was 0.02 µM; in assay [6] it was 0.016 µM. In addition, the GI50 is 0.022 µM in assay [3] and 0.052 µM in assay [7].
With `C=CCNC1=C2C[C@@H](C)C[C@H](OC)[C@H](O)[C@@H](C)/C=C(\C)[C@H](OC(N)=O)[C@@H](OC)/C=C\C=C(/C)C(=O)NC(=CC1=O)C2=O` [TANESPIMYCIN], the GI50 turned out to be 0.017 µM in assay [3] and 0.015 µM in assay [7]. In addition, the concentration giving a half-maximal response (EC50) in assay [5] turned out to be 0.124 µM.
